Results as given in patent US20240043427A1 (Gilead Sciences, Inc., priority 2020, published 2024).
“And” between values parts separate entries of the source, which are not always exact repeats. Identical values can stand only once.

What was measured:
CD73 [1] = molecular target: T1, CD73 (Homo sapiens (Human), UniProt P21589); assay: CD73 Biochemical IC50 Assay; conditions: CD73 0.3 nM, AMP 15 uM, 25 mM Tris pH 7.4, 5 mM MgCl2
Experimental: CD73 Biochemical IC50 Assay
Compound serial dilutions were pre-spotted into Thermo Nunc assay plate. 50 μL CD73 enzyme buffer (CD73 purchased from R&D system=0.6 nM, 25 mM Tris, pH 7.4, 5 mM MgCl2) was added into the assay plate and incubated for 15 mins. […] The samples were run using Rapid fire.

CD73 [2] = molecular target: T1, CD73; assay: MDA-MB-231 Cell Based CD73 Activity Assay; conditions: MDA-MB-231-GFP cells, RPMI medium with 10% human plasma, 200 uM AMP
Experimental: MDA-MB-231 Cell Based CD73 Activity Assay
MDA-MB-231-GFP cells were seeded in 384-well plates (Greiner 781946) at a density of 10000 cells per well in 50 μL of RPMI medium with 10% HP (human plasma). Cells were plated into assay plate with compounds pre-spotted, for an overnight compound treatment. 50 μL of 400 μM AMP (final concentration 200 μM) using a Bio-tek dispenser. Plates were incubated for 100 mins. […] The samples were run using Rapid fire.

T1 sequence (P21589 27-574): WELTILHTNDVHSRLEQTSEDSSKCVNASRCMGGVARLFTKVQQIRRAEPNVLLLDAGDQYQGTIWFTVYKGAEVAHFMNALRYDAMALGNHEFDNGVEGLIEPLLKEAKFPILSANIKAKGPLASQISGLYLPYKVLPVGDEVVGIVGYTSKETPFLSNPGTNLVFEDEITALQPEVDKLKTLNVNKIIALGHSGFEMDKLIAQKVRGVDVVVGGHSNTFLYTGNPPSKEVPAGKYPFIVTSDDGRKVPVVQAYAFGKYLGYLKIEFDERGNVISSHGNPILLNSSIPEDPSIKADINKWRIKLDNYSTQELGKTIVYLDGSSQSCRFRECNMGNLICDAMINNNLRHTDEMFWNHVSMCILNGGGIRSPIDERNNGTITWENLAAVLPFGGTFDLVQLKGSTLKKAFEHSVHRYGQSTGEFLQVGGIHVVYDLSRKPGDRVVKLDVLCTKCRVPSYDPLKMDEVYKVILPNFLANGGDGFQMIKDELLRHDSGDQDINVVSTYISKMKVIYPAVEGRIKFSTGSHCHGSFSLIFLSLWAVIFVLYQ

Work on `O=c1[nH]cc(-c2cc([C@H]3C[C@@H]3c3cccc4ccccc34)c3nccn3n2)c(=O)[nH]1` (racemic) [Example 74, 5-[8-[(1S,2S)-2-(1-naphthyl)cyclopropyl]imidazo[1,2-b]pyridazin-6-yl]-1H-pyrimidine-2,4-dione and 5-[8-[(1R,2R)-2-(1-naphthyl)cyclopropyl]imidazo[1,2-b]pyridazin-6-yl]-1H-pyrimidine-2,4-dione] yielded an IC50 (CD73 [1]) of 170 nM and an EC50 (CD73 [2]) of 540 nM.

In the case of `O=c1[nH]cc(-c2cc([C@H]3C[C@@H]3c3ccc(F)cc3)c3ncc(F)n3n2)c(=O)[nH]1` (racemic) [Example 76, 5-[3-fluoro-8-[(1S,2S)-2-(4-fluorophenyl)cyclopropyl]imidazo[1,2-b]pyridazin-6-yl]-1H-pyrimidine-2,4-dione and 5-[3-fluoro-8-[(1R,2R)-2-(4-fluorophenyl)cyclopropyl]imidazo[1,2-b]pyridazin-6-yl]-1H-pyrimidine-2,4-dione], the IC50 (CD73 [1]) is reported as 26.5 nM and the EC50 (CD73 [2]) is reported as 2.48 nM.

With `O=c1[nH]cc(-c2cc([C@H]3C[C@@H]3c3ccc(F)c(C(F)(F)F)c3)c3nccn3n2)c(=O)[nH]1` (racemic) [Example 95, 5-(8-((1S,2S)-2-(4-fluoro-3-(trifluoromethyl)phenyl)cyclopropyl)imidazo[1,2-b]pyridazin-6-yl)pyrimidine-2,4(1H,3H)-dione and 5-(8-((1R,2R)-2-(4-fluoro-3-(trifluoromethyl)phenyl)cyclopropyl)imidazo[1,2-b]pyridazin-6-yl)pyrimidine-2,4(1H,3H)-dione] the IC50 (CD73 [1]) was 49.5 nM and the EC50 (CD73 [2]) was 39.1 nM.

For `O=c1[nH]cc(-c2cc([C@H]3C[C@@H]3c3ccc(F)c(Cl)c3)c3nccn3n2)c(=O)[nH]1` (racemic) [Example 99, 5-(8-((1S,2S)-2-(3-chloro-4-fluorophenyl)cyclopropyl)imidazo[1,2-b]pyridazin-6-yl)pyrimidine-2,4(1H,3H)-dione and 5-(8-((1R,2R)-2-(3-chloro-4-fluorophenyl)cyclopropyl)imidazo[1,2-b]pyridazin-6-yl)pyrimidine-2,4(1H,3H)-dione], the IC50 (CD73 [1]) was 19.3 nM and the EC50 (CD73 [2]) was 6.05 nM.

For `O=c1[nH]cc(-c2cc([C@H]3C[C@@H]3Cc3ccccc3)c3nccn3n2)c(=O)[nH]1` (racemic) [Example 105, 5-(8-((1S,2R)-2-benzylcyclopropyl)imidazo[1,2-b]pyridazin-6-yl)pyrimidine-2,4(1H,3H)-dione and 5-(8-((1R,2S)-2-benzylcyclopropyl)imidazo[1,2-b]pyridazin-6-yl)pyrimidine-2,4(1H,3H)-dione], the IC50 (CD73 [1]) was 285 nM and the EC50 (CD73 [2]) was 38.5 nM.

In the case of `N#Cc1ccc(C[C@H]2C[C@@H]2c2cc(-c3c[nH]c(=O)[nH]c3=O)nn3ccnc23)cc1` (racemic) [Example 111, 4-(41R,2S)-2-(6-(2,4-dioxo-1,2,3,4-tetrahydropyrimidin-5-yl)imidazo[1,2-b]pyridazin-8-yl)cyclopropyl)methyl)benzonitrile and 4-(((1S,2R)-2-(6-(2,4-dioxo-1,2,3,4-tetrahydropyrimidin-5-yl)imidazo[1,2-b]pyridazin-8-yl)cyclopropyl)methyl)benzonitrile], the IC50 (CD73 [1]) is reported as 205 nM and the EC50 (CD73 [2]) is reported as 71.5 nM.

Work on `O=c1[nH]cc(-c2cc(N3CCC(c4ccc(F)cc4)C3)c3nccn3n2)c(=O)[nH]1` (stereo in doubt) [Example 68, 5-[8-[(3S)-3-(4-fluorophenyl)pyrrolidin-1-yl]imidazo[1,2-b]pyridazin-6-yl]-1H-pyrimidine-2,4-dione] yielded an IC50 (CD73 [1]) of 69.5 nM and an EC50 (CD73 [2]) of 67.5 nM.

`Cc1cn2nc(-c3c[nH]c(=O)[nH]c3=O)cc(C3CC3)c2n1` [Example 1, 5-(8-cyclopropyl-2-methyl-imidazo[1,2-b]pyridazin-6-yl)-1H-pyrimidine-2,4-dione] was tested, and the IC50 (CD73 [1]) was 507 nM and the EC50 (CD73 [2]) was 413 nM.

`O=c1[nH]cc(-c2cc(C3CC3)c3nc(-c4ccccc4)cn3n2)c(=O)[nH]1` [Example 2, 5-(8-cyclopropyl-2-phenyl-imidazo[1,2-b]pyridazin-6-yl)-1H-pyrimidine-2,4-dione] showed an IC50 (CD73 [1]) of 32.4 nM and an EC50 (CD73 [2]) of 53.3 nM.

`CCOC(=O)c1cn2nc(-c3c[nH]c(=O)[nH]c3=O)cc(C3CC3)c2n1` [Example 3, Ethyl 8-cyclopropyl-6-(2,4-dioxo-1H-pyrimidin-5-yl)imidazo[1,2-b]pyridazine-2-carboxylate] was tested, and the IC50 (CD73 [1]) was 235 nM and the EC50 (CD73 [2]) was 195 nM.

`O=c1[nH]cc(-c2cc(N3CCOCC3)c3nccn3n2)c(=O)[nH]1` [Example 10, 5-(8-morpholinoimidazo[1,2-b]pyridazin-6-yl)-1H-pyrimidine-2,4-dione] showed an IC50 (CD73 [1]) of 980 nM and an EC50 (CD73 [2]) of 473 nM.

Compound `O=c1[nH]cc(-c2cc(-n3ccnc3)c3nccn3n2)c(=O)[nH]1` [Example 11, 5-(8-imidazol-1-ylimidazo[1,2-b]pyridazin-6-yl)-1H-pyrimidine-2,4-dione] has an IC50 (CD73 [1]) of 110 nM and an EC50 (CD73 [2]) of 74.1 nM.

With `O=c1[nH]cc(-c2cc(NCc3ccccc3)c3nccn3n2)c(=O)[nH]1` [Example 12, 5-(8-(benzylamino)imidazo[1,2-b]pyridazin-6-yl)pyrimidine-2,4(1H,3H)-dione] the IC50 (CD73 [1]) was 479 nM and 653 nM and the EC50 (CD73 [2]) was 508 nM and 689 nM.

For `CN(Cc1ccccc1)c1cc(-c2c[nH]c(=O)[nH]c2=O)nn2ccnc12` [Example 13, 5-(8-(benzyl(methyl)amino)imidazo[1,2-b]pyridazin-6-yl)pyrimidine-2,4(1H,3H)-dione], the IC50 (CD73 [1]) was 368 nM and 607 nM and the EC50 (CD73 [2]) was 692 nM and 896 nM.

`O=c1[nH]cc(-c2cc(C3CCC(F)(F)CC3)c3nccn3n2)c(=O)[nH]1` [Example 14, 5-(8-(4,4-difluorocyclohexyl)imidazo[1,2-b]pyridazin-6-yl)pyrimidine-2,4(1H,3H)-dione] gave an IC50 (CD73 [1]) of 301 nM and an EC50 (CD73 [2]) of 79.2 nM.

Work on `CC(C)c1cc(-c2c[nH]c(=O)[nH]c2=O)nn2cc(C(F)(F)F)nc12` [Example 15, 5-(8-isopropyl-2-(trifluoromethyl)imidazo[1,2-b]pyridazin-6-yl)pyrimidine-2,4(1H,3H)-dione] yielded an IC50 (CD73 [1]) of 2350 nM and an EC50 (CD73 [2]) of 920 nM.

Work on `CC(C)c1cc(-c2c[nH]c(=O)[nH]c2=O)nn2cnnc12` [Example 16, 5-(8-isopropyl-[1,2,4]triazolo[4,3-b]pyridazin-6-yl)pyrimidine-2,4(1H,3H)-dione] yielded an IC50 (CD73 [1]) of 362 nM and an EC50 (CD73 [2]) of 333 nM.

`O=c1[nH]cc(-c2cc(Cc3ccccc3)c3nccn3n2)c(=O)[nH]1` [Example 17, 5-(8-benzylimidazo[1,2-b]pyridazin-6-yl)-1H-pyrimidine-2,4-dione] showed an IC50 (CD73 [1]) of over 2500 nM and an EC50 (CD73 [2]) of 3670 nM.

For `O=c1[nH]cc(-c2cc(C3(C(F)(F)F)CC3)c3nccn3n2)c(=O)[nH]1` [Example 18, 5-[8-[1-(trifluoromethyl)cyclopropyl]imidazo[1,2-b]pyridazin-6-yl]-1H-pyrimidine-2,4-dione], the IC50 (CD73 [1]) was over 2500 nM and the EC50 (CD73 [2]) was 20400 nM.

Work on `O=c1[nH]cc(-c2cc(C3(C(F)(F)F)CC3)c3nc(C4(C(F)(F)F)CC4)cn3n2)c(=O)[nH]1` [Example 19, 5-[2,8-bis[1-(trifluoromethyl)cyclopropyl]imidazo[1,2-b]pyridazin-6-yl]-1H-pyrimidine-2,4-dione] yielded an IC50 (CD73 [1]) of over 2500 nM and an EC50 (CD73 [2]) of over 25000 nM.

`O=c1[nH]cc(-c2cc(CS(=O)(=O)c3ccccc3)c3nccn3n2)c(=O)[nH]1` [Example 20, 5-[8-(benzenesulfonylmethyl)imidazo[1,2-b]pyridazin-6-yl]-1H-pyrimidine-2,4-dione] was tested, and the IC50 (CD73 [1]) was over 2500 nM and the EC50 (CD73 [2]) was over 25000 nM.
